Laboratory results from patent publication US10695337B2, “Piperidin-4-yl azetidine derivatives as JAK1 inhibitors” (Incyte Corporation, priority 2010, dated 2020).

target: human JAK1 (a.a. 837-1142); assay: In vitro JAK kinase assay (HTRF, phosphorylation of a biotinylated peptide), JAK1; type: biochemical; details: measured at 1 mM ATP; JAK2 IC50 / JAK1 IC50
In short: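 N-terminally His-tagged catalytic domains, baculovirus-expressed in insect cells and purified, were used as enzyme. Reactions ran 1 hr at room temperature and were stopped with a mix of 45 mM EDTA, 300 nM SA-APC and 6 nM Eu-Py20. The HTRF signal was read after 40 min of antibody binding.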

SMILES | IC50 Ratio JAK2/JAK1
CS(=O)(=O)N1CCC(N2CC(CC#N)(n3ccc(-c4ncnc5[nH]ccc45)c3)C2)CC1 [Example 348, {1-[1-(Methylsulfonyl)piperidin-4-yl]-3-[3-(7H-pyrrolo[2,3-d]pyrimidin-4-yl)-1H-pyrrol-1-yl]azetidin-3-yl}acetonitrile] | 3.2
N#CCC1(n2cc(-c3ccnc4[nH]ccc34)cn2)CN(C2CCN(C(=O)c3nc(C(F)(F)F)cs3)CC2)C1 [Example 350, [3-[4-(1H-Pyrrolo[2,3-b]pyridin-4-yl)-1H-pyrazol-1-yl]-1-(1-{[4-(trifluoromethyl)-1,3-thiazol-2-yl]carbonyl}piperidin-4-yl)azetidin-3-yl]acetonitrile] | 15.0
CS(=O)(=O)N1CCC(N2CC(CC#N)(n3cc(-c4ccnc5[nH]ccc45)cn3)C2)CC1 [Example 351, {1-[1-(Methylsulfonyl)piperidin-4-yl]-3-[4-(1H-pyrrolo[2,3-b]pyridin-4-yl)-1H-pyrazol-1-yl]azetidin-3-yl}acetonitrile] | 3.8
N#CCC1(n2cc(-c3c(F)cnc4[nH]ccc34)cn2)CN(C2CCN(C(=O)c3ccnc(C(F)(F)F)n3)CC2)C1 [Example 353, [3-[4-(5-Fluoro-1H-pyrrolo[2,3-b]pyridin-4-yl)-1H-pyrazol-1-yl]-1-(1-{[2-(trifluoromethyl)pyrimidin-4-yl]carbonyl}piperidin-4-yl)azetidin-3-yl]acetonitrile] | 5.0
N#CCC1(n2cc(-c3c(F)cnc4[nH]ccc34)cn2)CN(C2CCN(C(=O)c3cnc(C(F)(F)F)cn3)CC2)C1 [Example 354, [3-[4-(5-Fluoro-1H-pyrrolo[2,3-b]pyridin-4-yl)-1H-pyrazol-1-yl]-1-(1-{[5-(trifluoromethyl)pyrazin-2-yl]carbonyl}piperidin-4-yl)azetidin-3-yl]acetonitrile] | 2.1
CS(=O)(=O)N1CCC(N2CC(CC#N)(n3cc(-c4c(F)cnc5[nH]ccc45)cn3)C2)CC1 [Example 355, {3-[4-(5-Fluoro-1H-pyrrolo[2,3-b]pyridin-4-yl)-1Hpyrazol-1-yl]-1-[1-(methylsulfonyl)piperidin-4-yl]azetidin-3-yl}acetonitrile] | 3.1
N#CCC1(n2cc(-c3c(C#N)cnc4[nH]ccc34)cn2)CN(C2CCN(C(=O)c3cc(C(F)(F)F)ncc3F)CC2)C1 [Example 356, 4-[1-(3-(Cyanomethyl)-1-{1-[5-fluoro-2-(trifluoromethyl)isonicotinoyl]piperidin-4-yl}azetidin-3-yl)-1H-pyrazol-4-yl]-1H-pyrrolo[2,3-b]pyridine-5-carbonitrile] | 5.8
CS(=O)(=O)N1CCC(N2CC(CC#N)(n3cc(-c4c(C#N)cnc5[nH]ccc45)cn3)C2)CC1 [Example 357, 4-(1-{3-(Cyanomethyl)-1-[1-(methylsulfonyl)piperidin-4-yl]azetidin-3-yl}-1H-pyrazol-4-yl)-1H-pyrrolo[2,3-b]pyridine-5-carbonitrile] | 3.8
CN(C)Cc1cc(C(=O)N2CCC(N3CC(CC#N)(n4cc(-c5ncnc6[nH]ccc56)cn4)C3)CC2)nc(C(F)(F)F)n1 [Example 370, {1-(1-{[6-[(dimethylamino)methyl]-2-(trifluoromethyl)pyrimidin-4-yl]carbonyl}piperidin-4-yl)-3-[4-(7H-pyrrolo[2,3-d]pyrimidin-4-yl)-1H-pyrazol-1-yl]azetidin-3-yl}acetonitrile] | 55
CCN(C)Cc1cc(C(=O)N2CCC(N3CC(CC#N)(n4cc(-c5ncnc6[nH]ccc56)cn4)C3)CC2)nc(C(F)(F)F)n1 [Example 374] | 50
N#CCC1(n2cc(-c3ncnc4[nH]ccc34)cn2)CN(C2CCN(C(=O)c3cc(CO)nc(C(F)(F)F)n3)CC2)C1 [Example 381, {1-(1-{[6-(hydroxymethyl)-2-(trifluoromethyl)pyrimidin-4-yl]carbonyl}piperidin-4-yl)-3-[4-(7H-pyrrolo[2,3-d]pyrimidin-4-yl)-1H-pyrazol-1-yl]azetidin-3-yl}acetonitrile] | 20
CCCOC(=O)N1CCC(N2CC(CC#N)(n3cc(-c4ncnc5[nH]ccc45)cn3)C2)CC1 [Example 386, Propyl 4-{3-(cyanomethyl)-3-[4-(7H-pyrrolo[2,3-d]pyrimidin-4-yl)-1H-pyrazol-1-yl]azetidin-1-yl}piperidine-1-carboxylate] | 7.7
N#CCC1(n2cc(-c3ncnc4[nH]ccc34)cn2)CN(C2CCN(C(=O)OCC3CCC3)CC2)C1 [Example 387, Cyclobutylmethyl 4-{3-(cyanomethyl)-3-[4-(7H-pyrrolo[2,3-d]pyrimidin-4-yl)-1H-pyrazol-1-yl]azetidin-1-yl}piperidine-1-carboxylate] | 9.7
CCOC(=O)N1CCC(N2CC(CC#N)(n3cc(-c4ncnc5[nH]ccc45)cn3)C2)CC1 [Example 388, ethyl 4-{3-(cyanomethyl)-3-[4-(7H-pyrrolo[2,3-d]pyrimidin-4-yl)-1H-pyrazol-1-yl]azetidin-1-yl}piperidine-1-carboxylate] | 7.6
N#CCC1(n2cc(-c3ncnc4[nH]ccc34)cn2)CN(C2CCN(C(=O)OCc3ccccc3)CC2)C1 [Example 389, benzyl 4-{3-(cyanomethyl)-3-[4-(7H-pyrrolo[2,3-d]pyrimidin-4-yl)-1H-pyrazol-1-yl]azetidin-1-yl}piperidine-1-carboxylate] | 6.5
CC(C)COC(=O)N1CCC(N2CC(CC#N)(n3cc(-c4ncnc5[nH]ccc45)cn3)C2)CC1 [Example 390, isobutyl 4-{3-(cyanomethyl)-3-[4-(7H-pyrrolo[2,3-d]pyrimidin-4-yl)-1H-pyrazol-1-yl]azetidin-1-yl}piperidine-1-carboxylate] | 8.3
CC1(COC(=O)N2CCC(N3CC(CC#N)(n4cc(-c5ncnc6[nH]ccc56)cn4)C3)CC2)CC1 [Example 392, (1-methylcyclopropyl)methyl 4-{3-(cyanomethyl)-3-[4-(7H-pyrrolo[2,3-d]pyrimidin-4-yl)-1H-pyrazol-1-yl]azetidin-1-yl}piperidine-1-carboxylate] | 5.6
N#CCC1(n2cc(-c3ncnc4[nH]ccc34)cn2)CN(C2CCN(C(=O)OCc3ccc(F)cc3F)CC2)C1 [Example 393, 2,4-difluorobenzyl 4-{3-(cyanomethyl)-3-[4-(7H-pyrrolo[2,3-d]pyrimidin-4-yl)-1H-pyrazol-1-yl]azetidin-1-yl}piperidine-1-carboxylate] | 7.1
